# Measurements taken from US20230181601A1, “TREATMENT OF NON-ALCOHOLIC STEATOHEPATITIS (NASH)” (DURECT CORPORATION, priority 2020, published 2023).
# Columns and labels:
# [1] = Metabolite profiling of plasma, urine and feces after intravenous dose; type: in vivo, male Sprague Dawley rats; details: intravenous 10 mg/kg
# Method: (§1) Nine male Sprague Dawley rats (Group 1) were designated for the pharmacokinetic phase, 3 male Sprague Dawley rats (Group 2) for the excretion mass balance phase, and 7 male Sprague Dawley rats (Group 3) and 9 male Long Evans rats (Group 4) for the tissue distribution phase. All animals received a single intravenous dose of [^14C]-25HC3S at 10 mg/kg and a target radioactivity of 225 μCi/kg. Blood samples were collected from all Group 1 animals at approximately 0.083, 0.25, 0.5, 1, 2, 4, 8, 12, 24, 48, and 72 hours post-dose. Urine and feces were collected from all Group 2 animals periodically through 168 hours post-dose. […] Following blood collection, animals were euthanized by CO2 inhalation and carcasses frozen in a dry ice/hexane bath for processing by quantitative whole body autoradiography. Whole blood, plasma, urine, feces, cage rinse, and cage wash were analyzed for total radioactivity by liquid scintillation counting.
# [2] = Metabolite profiling of plasma and feces after oral dose; type: in vivo, rats; details: 75 mg/kg oral
# From the text: Radiolabeled components in plasma and feces extracts were profiled and identified using radio-high performance liquid chromatography (HPLC) and high performance liquid chromatography/mass spectrometry (HPLC/MS) methods.
# [3] = Plasma pharmacokinetics of radioactivity after single intravenous dose; type: in vivo, male Sprague Dawley rats; details: 10 mg/kg single intravenous (bolus)
# From the text: (§2) The objectives of this study were to determine the plasma pharmacokinetics of [4-^14C]-25HC3S-derived radioactivity in male Sprague Dawley rats, determine the routes of elimination and excretion mass balance of [4-^14C]-25HC3S-derived radioactivity in male Sprague Dawley rats, determine the tissue distribution and tissue pharmacokinetics of [4-^14C]-25HC3S-derived radioactivity using quantitative whole body autoradiography methods in male Sprague Dawley and Long Evans rats following a single intravenous (bolus) dose, and to provide plasma, urine, and fecal homogenate samples for metabolite profiling of [4-^14C]-25HC3S-derived radioactivity.
# as §1
# [4] = Excretion mass balance after single intravenous dose; type: in vivo, male Sprague Dawley rats; details: 10 mg/kg intravenous, over 168 hours
# From the text: as §2
# as §1, with “μCi/kg.” for “μCi/kg. Blood samples were collected from all Group 1 animals at approximately 0.083, 0.25, 0.5, 1, 2, 4, 8, 12, 24, 48, and 72 hours post-dose. Urine and feces were collected from all Group 2 animals periodically through 168 hours post-dose.”
# [5] = Tissue distribution by quantitative whole body autoradiography after single intravenous dose; type: in vivo, male Sprague Dawley rats; details: 10 mg/kg intravenous
# From the text: as §2, §1
# [6] = Tissue distribution by quantitative whole body autoradiography after single intravenous dose, pigmented rats; type: in vivo, male Long Evans rats; details: 10 mg/kg intravenous
# From the text: as §2
# as §1, with “μCi/kg.” for “μCi/kg. Blood samples were collected from all Group 1 animals at approximately 0.083, 0.25, 0.5, 1, 2, 4, 8, 12, 24, 48, and 72 hours post-dose. Urine and feces were collected from all Group 2 animals periodically through 168 hours post-dose.”
# [7] = Plasma pharmacokinetics of radioactivity after single oral (gavage) dose; type: in vivo, rats; details: 75 mg/kg single oral (gavage)
# [8] = Excretion mass balance after single oral (gavage) dose; type: in vivo, rats; details: 75 mg/kg single oral (gavage)
# [9] = Tissue distribution by quantitative whole body autoradiography after single oral (gavage) dose; type: in vivo, male Sprague Dawley rats; details: 75 mg/kg oral
compound,measurement,setting,value
"C[C@H](CCCC(C)(C)O)[C@H]1CC[C@H]2[C@@H]3CC=C4C[C@@H](O)CC[C@]4(C)[C@H]3CC[C@]12C [M29, 25-hydroxycholesterol]","detection in plasma, urine, or feces samples",[1],Neither desmosterol sulfate nor 25-hydroxycholesterol was detected
same,relative observed intensity (ROI) in plasma,[2]; 2 hour postdose plasma,37%
same,% of total dose in feces,[2]; pools 0 to 168 hours post-dose,1.9 % of total dose
same,concentration at 2 h,"[2]; Sprague Dawley, rat, 2 hour postdose plasma",1230 ng/g
C[C@H](CCCC(C)(C)O)[C@H]1CC[C@H]2[C@@H]3CC=C4[14CH2][C@@H](OS(=O)(=O)O)CC[C@]4(C)[C@H]3CC[C@]12C [[4-^14C]-25HC3S],terminal elimination phase T1/2,"[3]; plasma, PK phase",26.6 h
same,mean plasma C0,[3]; total radioactivity,"25,900 ng-equiv./g"
same,plasma AUClast,[3]; total radioactivity,"27,900 h*ng-equiv./g"
same,"dose recovered in urine, feces, and cage rinse",[4],approximately 100.2%
same,recovered radioactivity in feces,[4],83.0%
same,plasma:whole blood AUClast ratio,[5],0.79
same,tissue distribution by QWBA,[5],broadly distributed and detected by quantitative whole body autoradiography in all tissues except the eye (lens)
same,whole blood AUClast,[5]; Group 3,"25,200 h*ng-equiv./g"
same,T1/2 in plasma,[5]; QWBA phase,44.3 h
same,T1/2 in whole blood,[5]; QWBA phase,52.2 h
same,maximum plasma concentration,[5]; QWBA phase,"12,400 ng-equiv./g"
same,"tissue:plasma ratio, liver",[5]; calculated using AUClast,11.4
same,"tissue:plasma ratio, small intestine (wall)",[5]; calculated using AUClast,7.44
same,AUClast in liver,[5]; radioactivity,"≤ 364,000 hng/g"
same,binding to pigmented or non-pigmented skin or the uveal tract,[6],no difference
same,plasma or whole blood concentrations versus Sprague Dawley rats,[6]; first 168 hours postdose,no substantial difference
C[C@H](CCCC(C)(C)O)[C@H]1CC[C@H]2[C@@H]3CC=C4CC(OS(=O)(=O)O)CC[C@]4(C)[C@H]3CC[C@]12C (some centres unmarked) [[^14C]-25HC3S],terminal elimination phase T1/2,[7],27.3 h
same,plasma AUClast,[7]; radioactivity,"96,400 h.ng equiv./g"
same,"dose recovered in urine, feces, and cage rinse",[8],approximately 94.5%
same,recovered radioactivity in feces,[8],94.2%
same,plasma:whole blood AUClast ratio,[9],1.12
same,"skin, thymus, prostate, and pituitary tissue concentrations",[9],< 3000 ng equiv./g
same,tissue Tmax,[9],≤ 6 h
same,tissue distribution by QWBA,[9],broadly distributed and detected by quantitative whole body autoradiography in all tissues except the eye (lens)
same,uveal tract and brain concentrations,[9],approximately 1000 ng equiv./g
same,whole blood AUClast,[9],"127,000 h.ng equiv./g"
same,"tissue:plasma ratio, adrenal gland",[9]; calculated using AUClast,6.64
same,"tissue:plasma ratio, liver",[9]; calculated using AUClast,6.96
same,"tissue:plasma ratio, small intestine (wall)",[9]; calculated using AUClast,15.4
desmosterol sulfate,"detection in plasma, urine, or feces samples",[1],Neither desmosterol sulfate nor 25-hydroxycholesterol was detected
same,detection in plasma or feces samples,[2],not found
